Entries after “also recorded” stand apart in the source; their conditions may differ. Each block holds one molecule with its values, some of them ahead of it.
Assays:
[1] = test system: MDA-MB-231 human breast cancer cells; assay: Boyden chamber assay (CytoSelect 96-well cell migration); format: cell-based; conditions: 100 nM, 37 °C, n = 3; for Anti-migration activity, P152 vs scrambled peptides: t-test, comparison with scrambled P152-1 and P152-2 (Figure 5); for Migration of MDA-MB-231 cells vs non-treatment: 24 h (1 h pre-incubation), 5% CO2, CyQuant GR fluorescence, t-test p < 0.05
Procedure: A Boyden chamber assay was performed using the CytoSelect™ 96-well cell migration assay kit (8 µm, Fluorometric Format, Cat. No. CBA-106; Cell Biolabs, Inc., San Diego, CA, USA). Human breast cancer MDA-MB-231 cells (HTB-26TM; American Type Culture Collection, Manassas, VA, USA) were suspended in serum-free D-MEM medium (1.85 × 10^5 cells/mL) containing 100 nM CD81-BP, AAAA or CD81 antibody (5A6) at 37 °C and 5% CO2 for 1 h. Then, within the Boyden chamber, 100 µL of the serum-free cell suspension was added to the upper chamber, while 150 µL of 10% FBS-containing medium was placed in the lower chamber. After incubation at 37 °C and 5% CO2 for 24 h, the cells that migrated to the lower chamber were detached from the membrane by cell detachment buffer, lysed by lysis buffer, and stained with CyQuant® GR dye. The fluorescence intensity of the cell lysate was analyzed at 480/520 nm by a microplate reader (Biomedical Solutions, Inc., Stafford, TX, USA).
The experiment was performed with at least three replicates. The t-test was performed using Prism 9 (GraphPad Software, Inc., La Jolla, CA, USA) or Microsoft Excel (Microsoft, WA, USA) to analyze the statistical significance difference. The statistical significance was set at p-value < 0.05.

[2] = test system: Recombinant CD81 human protein (LEL Phe113-Lys201); assay: Binding assay between EWI-2 peptide array and Alexa Fluor 488-labeled CD81 (screening); conditions: 500 nM labeled CD81, room temperature, 3 h, 3% BSA block; blank-subtracted; fluorescence scan; n = 3
Procedure: The peptide array was prepared similarly to the method described in previous reports. A peptide library of eight-residue peptides was obtained by overlapping four residues from Ig3 to the C-terminus of human EWI-2 (accession number: Q969P0) (Table S1). Next, the EWI-2 peptide array was synthesized on a Fmoc-β-Alanine-activated cellulose membrane using Fmoc-based chemistry. The synthesis cycle was initiated by deprotecting the N-terminal Fmoc group with 20% piperidine in DMF and then washing it with DMF and EtOH, respectively. […]
The Alexa Fluor™ 488 protein labeling kit (Thermo Fisher Scientific, Waltham, MA, USA) was applied to fluorescently label the CD81 protein. […] The concentration of the labeled CD81 protein solution was finally quantified using a Bradford protein assay kit (Takara Bio Inc., Shiga, Japan).
First, to reduce nonspecific interactions, the peptide array was blocked by 3% BSA in Tris–HCl buffer at room temperature for 15 min, followed by membrane washing with Tris–HCl buffer. […] Finally, the membrane was fluorescence-scanned and imaged by a biomolecular imager (Typhoon FLA 9500; GE Healthcare, Hatfield, UK), before the spot intensity of each peptide was measured using GE Healthcare’s ImageQuant TL 8.1 software.

[3] = biological target: T1, Recombinant CD81 human protein, large extracellular loop (LEL, Phe113-Lys201), Alexa Fluor 488-labeled (human, UniProt P60033 113-201, Alexa Fluor 488 dye (succinimidyl ester labeling)); assay: peptide or protein array; candidate peptides and control AAAA on cellulose membrane, blocked with 3% BSA; Alexa488-labeled CD81 at 50 nM to 1 µM, room temperature, 3 h; AAAA-subtracted spot intensity fitted to the Hill equation; estimated KD; conditions: both partners purified
T1 construct: two additional amino acids (Gly and Pro) at the N-terminus of the LEL; CD81, human, large extracellular loop (LEL), Phe113-Lys201; also called CD81 protein; CD81 LEL; source: bought: Sino Biological (Cat. No. 14244-HNCH); labeled with the Alexa Fluor 488 protein labeling kit
T1 sequence: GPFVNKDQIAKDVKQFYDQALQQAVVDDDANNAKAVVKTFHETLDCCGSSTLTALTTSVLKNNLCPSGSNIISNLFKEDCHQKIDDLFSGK

Molecule: KKRCRFLM [Peptide P152-2, scrambled peptide of P152 (KKRCRFLM)]
Anti-migration activity, P152 vs scrambled peptides ([1]; 24 h): only P152 origin showed statistical significance (p-value < 0.05)

Molecule: ASRTYRLR [Peptide P97]
Migration of MDA-MB-231 cells vs non-treatment [1]: no distinct inhibition was observed | Spot fluorescence intensity on array (candidate selection) [2]: greater than the average (AVG) and two standard deviations (SD)

Molecule: FRKCKMRL [Peptide P152-1, scrambled peptide of P152 (FRKCKMRL)]
Anti-migration activity, P152 vs scrambled peptides ([1]; 24 h): showed the impact on MDA-MB-23 cell migration as seemingly as the original P152; also recorded: only P152 origin showed statistical significance (p-value < 0.05)

Molecule: FMKRLRKR [Peptide P153, EWI-2-derived CD81-BP candidate, FMKRLRKR]
Migration of MDA-MB-231 cells vs non-treatment [1]: could significantly reduce the migration of MDA-MB-231 cells | Inhibition of migration compared with anti-human CD81 antibody 5A6 ([1]; 24 h): comparable or competitive to an anti-CD81 monoclonal human antibody (5A6) | Spot fluorescence intensity on array (candidate selection) [2]: greater than the average (AVG) and two standard deviations (SD)

Kd [3]: 910 nM
B1: P152 (CFMKRLRK), EWI-2-derived eight-residue peptide (peptide)
peptide: CFMKRLRK
modifications: synthesized on a Fmoc-β-Alanine-activated cellulose membrane
notes: eight-residue stretch of human EWI-2 (immunoglobulin superfamily member 8), near the C-terminus; For the migration assay the peptide was made as a free powder on Rink amide resin; also called CD81-BP candidate; source: synthetic peptide, spot-synthesized on cellulose membrane (peptide array)

Kd [3]: 12600 nM
B2: P153 (FMKRLRKR), EWI-2-derived eight-residue peptide (peptide)
peptide: FMKRLRKR
modifications: synthesized on a Fmoc-β-Alanine-activated cellulose membrane
notes: last eight residues of human EWI-2 (immunoglobulin superfamily member 8); also called CD81-BP candidate; source: synthetic peptide, spot-synthesized on cellulose membrane (peptide array)

Kd [3]: 1060 nM
B3: P97 (ASRTYRLR), EWI-2-derived eight-residue peptide (peptide)
peptide: ASRTYRLR
modifications: synthesized on a Fmoc-β-Alanine-activated cellulose membrane
notes: eight-residue stretch of human EWI-2 (immunoglobulin superfamily member 8), between the Ig3 domain and the C-terminus; For the migration assay the peptide was made as a free powder on Rink amide resin; also called CD81-BP candidate; source: synthetic peptide, spot-synthesized on cellulose membrane (peptide array)

Kd [3]: 1630 nM
B4: P132 (RSHRLRLH), EWI-2-derived eight-residue peptide (peptide)
peptide: RSHRLRLH
modifications: synthesized on a Fmoc-β-Alanine-activated cellulose membrane
notes: eight-residue stretch of human EWI-2 (immunoglobulin superfamily member 8), between the Ig3 domain and the C-terminus; also called CD81-BP candidate; source: synthetic peptide, spot-synthesized on cellulose membrane (peptide array)
